In brackets after ≈: the same amount, converted by molar mass.
Assay: Solubility of racemic and enantiopure hydroxy cineol in different solvents at room temperature
Details: for Solubility: room temperature
Experimental: The solubility of racemic hydroxy cineol and enantiopure hydroxy cineol was checked at room temperature in solvents namely, petroleum ether, n-pentane, n-hexane, n-heptane, iso-octane, cyclohexane and toluene.
The solubility at room temperature was determined by adding under stirring small portions of the substance to 5 mL of solvent until it reached saturation and formation of a no more soluble sediment was observed.

With `CC(C)C12CCC(C)(O1)C(O)C2` (racemic) [Racemate, hydroxy cineol] as the compound, how does the Solubility (cyclohexane) read?
The Solubility was 380 mg/mL (≈ 2230 mM).

And the Solubility (iso-octane)?
The Solubility was 75 mg/mL (≈ 441 mM).

What about the “solubility of racemate relative to the optical pure hydroxy-cineol” value (n-heptane) of the same compound?
Its value is 8 fold.

And the Solubility (n-heptane)?
The Solubility was 80 mg/mL (≈ 470 mM).

And the Solubility (n-hexane)?
Its Solubility is 100 mg/mL (≈ 587 mM).

What about the Solubility (n-pentane) of the same compound?
Its Solubility is 150 mg/mL (≈ 881 mM).

And the “solubility of racemic compound compared with optical pure material” value (non-polar solvents)?
Its value is “much better soluble”.

And the Solubility (petroleum ether)?
The Solubility was 120 mg/mL (≈ 705 mM).

And the Solubility (toluene)?
The Solubility was 800 mg/mL (≈ 4700 mM).

Reference: patent US11866443B2, “Method for separating optically active hydroxy cineole derivatives” (BASF Agro B.V., priority 2017, dated 2024)
